These results are taken from patent US20250326742A1, “THERAPEUTIC COMPOUNDS” (RUTGERS, THE STATE UNIVERSITY OF NEW JERSEY, priority 2024, published 2025).

The term pEC50 denotes the negative decadic logarithm of the EC50, by convention in mol/L. The term CC50 denotes the concentration at which the toxic effect on the cells reaches its halfway point. Usually pIC50 stands for the negative decadic logarithm of the IC50, by convention in mol/L. Read a low pIC50 as a high IC50.

pEC50, pIC50: −log10 of the molar value. A value given as a limit tells only on which side of the number the result lay.

Data set [1] deals with SARS-CoV-2 viral replication. Conditions: cited from earlier work.
The nature of data set [2]: Cytotoxicity assay in Vero E6 cells (neutral red uptake). It is filed as cell-based. The note with it: African green monkey, 2 days at 37° C. As for the experimental part: (§1) Cytotoxicity Assay in Vero E6 Cells
(§2) Briefly, 80,000 cells/ml of the tested cell lines were dispensed into 96-well cell culture plates at 100 μl per well. Twenty-four hours later, the growth medium was removed and washed with 150 μl of PBS buffer. Two hundred microliters of fresh serum-free medium containing serial diluted compounds was added to each well. After incubating for 2 days at 37° C., the medium was removed and replaced with 100 μl of DMEM medium containing neutral red (40 μg/ml) and incubated for 2 to 4 hours at 37° C. The amount of neutral red taken up was determined by measuring the absorbance at 540 nm using a Multiskan FC Microplate Photometer (Thermo Fisher Scientific). The CC50 values were calculated from best-fit dose-response curves with variable slope in Prism 8.

Another data set deals with SARS-CoV-2 PLpro (Severe acute respiratory syndrome coronavirus 2, UniProt P0DTD1). In words: biochemical. Conditions: 200 nM PLpro, 10 μM FRET substrate, 30 min preincubation at 30° C. The method, then: FRET-Based PL^pro Enzymatic Assay
The SARS-CoV-2 PL^pro enzymatic assays were carried out as follows: The assay was assembled in 96-well plates with 100 μl of 200 nM PL^Pro protein in PL^Pro reaction buffer [50 mM Hepes (pH 7.5), 0.01% Triton X-100, and 5 mM DTT]. Then, 1 μl of testing compound at various concentrations was added to each well and incubated at 30° C. for 30 minutes. The enzymatic reaction was initiated by adding 1 μl of 1 mM FRET substrate (the final substrate concentration is 10 μM). The reaction was monitored in a Cytation 5 image reader with filters for excitation at 360/40 nm and emission at 460/40 nm at 30° C. for 1 hour. The initial velocity of the enzymatic reaction with and without testing compounds was calculated by linear regression for the first 15 minutes of the kinetic progress curve. The ICso values were calculated by plotting the initial velocity against various concentrations of testing compounds with a dose-response function in Prism 8 software.

For the next data set, the system named is Vero E6 cells. In words: Cytotoxicity assay in Vero E6 cells (neutral red uptake). Conditions: 2 days at 37° C. The data set is classed as cell-based. As for the experimental part: as §1, §2

With `Cc1ccc(N)cc1C(=O)N[C@H](C)c1cccc2ccccc12` [GRL0617], the pEC50 in data set [1] is ~4.70.
As for `CCn1ccc(-c2cc(-c3cnn(C)c3)cc([C@@H](C)NC(=O)c3ccccc3CCC(=O)NNC(=O)/C=C/C(=O)NC3CC(F)(F)C3)c2)n1` [Example 14, (R,E)-2-(3-(2-(4-((3,3-Difluorocyclobutyl)amino)-4-oxobut-2-enoyl)hydrazineyl)-3-oxopropyl)-N-(1-(3-(1-ethyl-1H-pyrazol-3-yl)-5-(1-methyl-1H-pyrazol-4-yl)phenyl)ethyl)benzamide], the CC50 at 2 days in data set [2] was > 250 µM. In addition, at SARS-CoV-2 PLpro, the pIC50 is > 6.00.
Taken in the same sequence, the figures for `CCn1ccc(-c2cc(-c3cnn(C)c3)cc([C@@H](C)NC(=O)c3ccccc3CCC(=O)NNC(=O)C(Cl)Cl)c2)n1` [Example 3, (R)-2-(3-(2-(2,2-Dichloroacetyl)hydrazineyl)-3-oxopropyl)-N-(1-(3-(1-ethyl-1H-pyrazol-3-yl)-5-(1-methyl-1H-pyrazol-4-yl)phenyl)ethyl)benzamide] were > 500 µM and 5.30 to 6.00.
On the same counts, the results for `CCn1ccc(-c2cc(-c3cnn(C)c3)cc([C@@H](C)NC(=O)c3ccccc3CCC(=O)NNC(=O)/C=C/C(=O)N(C)C)c2)n1` [Example 12, (R,E)-2-(3-(2-(4-(Dimethylamino)-4-oxobut-2-enoyl)hydrazineyl)-3-oxopropyl)-N-(1-(3-(1-ethyl-1H-pyrazol-3-yl)-5-(1-methyl-1H-pyrazol-4-yl)phenyl)ethyl)benzamide] are > 500 µM and > 6.00.
On the same counts, the results for `C=C(F)C(=O)NNC(=O)CCc1ccccc1C(=O)N[C@H](C)c1cc(-c2cnn(C)c2)cc(-c2ccn(CC)n2)c1` [Example 16, (R)-N-(1-(3-(1-Ethyl-1H-pyrazol-3-yl)-5-(1-methyl-1H-pyrazol-4-yl)phenyl)ethyl)-2-(3-(2-(2-fluoroacryloyl)hydrazineyl)-3-oxopropyl)benzamide] are > 250 µM and < 5.30.
`CCn1ccc(-c2cc(-c3cnn(C)c3)cc([C@@H](C)NC(=O)c3ccccc3CCC(=O)NNC(=O)/C=C/C(=O)N3CCC3)c2)n1` [Example 22, (R,E)-2-(3-(2-(4-(azetidin-1-yl)-4-oxobut-2-enoyl) hydrazineyl)-3-oxopropyl)-N-(1-(3-(1-ethyl-1H-pyrazol-3-yl)-5-(1-methyl-1H-pyrazol-4-yl)phenyl)ethyl)benzamide]: the CC50 at 2 days in data set [2] is > 250 µM. Moreover, at SARS-CoV-2 PLpro, the pIC50 was > 6.00.
As to `C#CCNC(=O)CCc1ccccc1C(=O)N[C@H](C)c1cc(-c2cnn(C)c2)cc(-c2ccn(CC)n2)c1` [Example 2, (R)-N-(1-(3-(1-Ethyl-1H-pyrazol-3-yl)-5-(1-methyl-1H-pyrazol-4-yl)phenyl)ethyl)-2-(3-oxo-3-(prop-2-yn-1-ylamino)propyl)benzamide], the CC50 at 2 days in data set [2] turned out to be 256 µM. The pIC50 on SARS-CoV-2 PLpro was 5.30 to 6.00.
In the data set on Vero E6 cells, “(R)-2-(3-((2-Cyanoethyl)amino)-3-oxopropyl)-N-(1-(3-(1-ethyl-1H-pyrazol-3-yl)-5-(1-methyl-1H-pyrazol-4-yl)phenyl)ethyl)benzamide [Example 1]” registered a CC50 of 146 µM. The pIC50 on SARS-CoV-2 PLpro was < 5.30.
Turning to `CCn1ccc(-c2cc(-c3cnn(C)c3)cc([C@@H](C)NC(=O)c3ccccc3CCC(=O)NNC(=O)/C=C/C(=O)NC3CC3)c2)n1` [Example 13, (R,E)-2-(3-(2-(4-(Cyclopropylamino)-4-oxobut-2-enoyl)hydrazineyl)-3-oxopropyl)-N-(1-(3-(1-ethyl-1H-pyrazol-3-yl)-5-(1-methyl-1H-pyrazol-4-yl)phenyl)ethyl)benzamide], the CC50 at 2 days in data set [2] was > 250 µM. The pIC50 on SARS-CoV-2 PLpro was > 6.00.
Take `CCn1ccc(-c2cc(-c3cnn(C)c3)cc([C@@H](C)NC(=O)c3ccccc3CCC(=O)NNC(=O)/C=C/CN(C)C)c2)n1` [Example 5, (R,E)-2-(3-(2-(4-(Dimethylamino)but-2-enoyl)hydrazineyl)-3-oxopropyl)-N-(1-(3-(1-ethyl-1H-pyrazol-3-yl)-5-(1-methyl-1H-pyrazol-4-yl)phenyl)ethyl)benzamide]: in data set [2], the CC50 at 2 days is > 500 µM. Further, the pIC50 against SARS-CoV-2 PLpro was < 5.30.
